# According to patent US5607926A, “Cephalosporin antibiotics” (Microcide Pharmaceuticals, Inc., priority 1995, dated 1997):
# Counter-ions that a name gives are not always drawn. Like-named read-outs stand apart in the source and are kept apart here.
# Tests used:
# Format in all cases: cell-based
# [1] = test system: E. coli ATCC 25922; assay: In vitro antibacterial evaluation, MIC by agar dilution, E. coli ATCC 25922; conditions: Escherichia coli, ATCC25922, read-out: MIC
# In short: (§1)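 Minimum inhibitory concentrations came from the NCCLS agar dilution method in Mueller-Hinton agar. Each isolate received about 10^4 cfu per spot, and plates were read after 16-20 hours at 35°-36° C.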
# [2] = test system: E. faecalis ATCC 29212; assay: In vitro antibacterial evaluation, MIC by agar dilution, E. faecalis ATCC 29212; conditions: Enterococcus faecalis, ATCC29212; E. faecalis ATCC 29212; read-out: MIC
# In short: as §1
# [3] = test system: S. epidermidis ATCC 31432; assay: In vitro antibacterial evaluation, MIC by agar dilution, S. epidermidis ATCC 31432; conditions: Staphylococcus epidermidis, ATCC31432
# In short: as §1
# [4] = test system: E. faecium ATCC 35667; assay: In vitro antibacterial evaluation, MIC by agar dilution, E. faecium ATCC 35667; conditions: Enterococcus faecium, ATCC35667, read-out: MIC
# In short: as §1
# [5] = test system: S. haemolyticus (Meth^R); assay: In vitro antibacterial evaluation, MIC by agar dilution, S. haemolyticus; conditions: Staphylococcus haemolyticus, read-out: MIC
# In short: as §1
# [6] = test system: P. aeruginosa ATCC 27853; assay: In vitro antibacterial evaluation, MIC by agar dilution, P. aeruginosa ATCC 27853; conditions: Pseudomonas aeruginosa, ATCC27853, read-out: MIC
# In short: as §1
# [7] = test system: S. aureus 76 (Meth^R)(lac^+); assay: In vitro antibacterial evaluation, MIC by agar dilution, S. aureus 76; conditions: Staphylococcus aureus, read-out: MIC
# In short: as §1
# [8] = test system: S. aureus ATCC 29213; assay: In vitro antibacterial evaluation, MIC by agar dilution, S. aureus ATCC 29213; conditions: Staphylococcus aureus, ATCC29213
# In short: as §1
# [9] = test system: S. aureus ATCC 25923; assay: In vitro antibacterial evaluation, MIC by agar dilution, S. aureus ATCC 25923; conditions: Staphylococcus aureus, ATCC25923
# Method: The compounds of the invention were evaluated against several β-lactamresistant bacteria strains by determining the minimum inhibitory concentration (MIC, μg/ml) of each compound with respect to each strain. The MIC, the lowest concentration of antibiotic which inhibits growth of the test organism, was determined by the agar dilution method.
# To determine the MIC for bacterial isolates, the test compound was incorporated in a series of two-fold dilutions into liquified Mueller-Hinton agar. Upon solidification, a number of different bacterial strains were spot inoculated with a replicating device onto the agar surface. […] The procedures used in these studies have been standardized by the National Committee for Clinical Laboratory Standards (NCCLS), as per the NCCLS publication entitled METHODS FOR DILUTION ANTIMICROBIAL SUSCEPTIBILITY TESTS (1991), which is incorporated herein by reference.
# Aliquots of antimicrobial agents were prepared in phosphate buffered saline (PBS) at pH 7.2. Tween 20 or DMSO was used as a solubilizing vehicle as needed. Standard methods of vortexing, sonicating and gentle heat were used to facilitate solubilizing the test agent. Typically, the concentration of the stock solution was 10× that of the highest drug concentration tested. A 1.28 mg/mL stock solution was used with a subsequent highest working concentration of 128 μg/mL. Serial two-fold dilutions were done through ≤0.25 μg/mL. Each drug level was tested in duplicate. Two-fold drug dilutions were done in sterile 50 mL tubes with a final drug volume of 5 mL. Upon the addition of 45 mL of molten agar, a 10-fold dilution resulted. Two, 25 mL. plates were then poured into 15×150 mm square Petri plates with grids and allowed to harden.
# A control plate with a reference drug, either cefotaxime, vancomycin or imipenem, was used as the positive growth control. Stock concentrations of reference antibiotics were prepared and frozen at -80° C. Upon preparation, the control plates were sealed and stored in the refrigerator for up to 1 week prior to use; however, imipenem control plates had to be prepared just prior to use. All test plates were used within 24 hours of preparation.
# Satisfactory results were obtained where the inoculum contained about 10^4 colony forming units (cfu) ±0.5 logs. Starting with pure cultures of the test isolates on agar plates, a few isolated colonies were transferred to a tube of nutrient broth and allowed to grow 4-6 hours at 35°-36° C. to reach log-phase growth. Dropwise addition of the broth culture to PBS was done to match a 0.5 McFarland turbidity standard equal to 10^8 cfu/mL. This was further diluted ten-fold in PBS to reach a working inoculum concentration of 10^7 cfu/mL. When 1 μL of the working inoculum was applied to the agar surface a concentration of about 10^4 cfu per spot was obtained.
# Disposable sterile 1 μL loops were used to inoculate test plates, with each isolate in a designated grid on the agar plate. An alternate method of inoculation involved the use of a replica plater, a device with 48 steel pins allowing the simultaneous inoculation of multiple isolates. After the spots had dried, the plates were incubated at 35°-36° C. for 16-20 hours. Endpoints were assessed as the minimum inhibitory concentration (MIC) of antimicrobial agent.
# [10] = test system: S. aureus Col8A (Meth^S)(lac^-); assay: In vitro antibacterial evaluation, MIC by agar dilution, S. aureus Col8A; conditions: Staphylococcus aureus
# In short: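 Agar dilution per NCCLS (1991): two-fold dilutions from 128 μg/mL down to ≤0.25 μg/mL in Mueller-Hinton agar, each level in duplicate. Spots of about 10^4 cfu of log-phase culture; 16-20 h at 35°-36° C. MIC in μg/ml is the lowest concentration inhibiting growth.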
# [11] = S. aureus ATCC 29213, read-out: MIC
compound,measurement,setting,value
"N#Cc1ccc(SC2=C(C(=O)O)N3C(=O)[C@@H](NC(=O)Cc4ccccc4)[C@H]3SC2)c(C#N)c1 [Cmpd 51, (7R)-7-[(Phenylacetyl)amino]-3-(2,4-dicyanophenylthio)-3-cephem-4-carboxylic acid]",MIC,[1],> 32 µg/mL
same,MIC,[2],4 µg/mL
same,MIC,[3],< 0.25 µg/mL
same,MIC,[4],4 µg/mL
same,MIC,[5],32 µg/mL
same,MIC,[6],> 32 µg/mL
same,MIC,[7],8 µg/mL
same,MIC,[8]; [11],0.5 µg/mL
same,MIC,[9],< 0.25 µg/mL
same,MIC,[10],< 0.25 µg/mL
"N#CCC(=O)N[C@@H]1C(=O)N2C(C(=O)O)=C(Sc3ccccc3C#N)CS[C@H]12 [Cmpd 52, (7R)-7-[(Cyanoacetyl)amino]-3-(2-cyanophenylthio)-3-cephem-4-carboxylic acid]",MIC,[1],> 32 µg/mL
same,MIC,[2],4 µg/mL
same,MIC,"[3]; S. epidermidis ATCC 31432, read-out: MIC",< 0.25 µg/mL
same,MIC,[4],2 µg/mL
same,MIC,[5],16 µg/mL
same,MIC,[6],> 32 µg/mL
same,MIC,[7],16 µg/mL
same,MIC,[8]; [11],0.5 µg/mL
same,MIC,"[9]; S. aureus ATCC 25923, read-out: MIC",< 0.25 µg/mL
same,MIC,[10],0.5 µg/mL
"N=C(N)SCc1ccc(SC2=C(C(=O)O)N3C(=O)[C@@H](NC(=O)Cc4ccccc4)[C@H]3SC2)cc1 [Cmpd 63, (7R)-7-[(Phenylacetyl)amino]-3-(4-isothiouroniummethylphenylthio)-3-cephem-4-carboxylate, inner salt]",MIC,[1],8 µg/mL
same,MIC,[2],1 µg/mL
same,MIC,[3],< 0.25 µg/mL
same,MIC,[4],1 µg/mL
same,MIC,[5],32 µg/mL
same,MIC,[6],> 32 µg/mL
same,MIC,[7],16 µg/mL
same,MIC,[9],< 0.25 µg/mL
same,MIC,[10],< 0.25 µg/mL
"N=C(N)SCc1ccccc1SC1=C(C(=O)O)N2C(=O)[C@@H](NC(=O)Cc3ccccc3)[C@H]2SC1 [Cmpd 64, (7R)-7-[(Phenylacetyl)amino]-3-(2-isothiouroniummethylphenylthio)-3-cephem-4-carboxylate, inner salt]",MIC,[1],> 32 µg/mL
same,MIC,[2],1 µg/mL
same,MIC,[3],< 0.25 µg/mL
same,MIC,[4],0.5 µg/mL
same,MIC,[5],8 µg/mL
same,MIC,[6],> 32 µg/mL
same,MIC,[7],4 µg/mL
same,MIC,[8],< 0.25 µg/mL
same,MIC,[9],< 0.25 µg/mL
same,MIC,[10],< 0.25 µg/mL
"O=C(Cc1ccccc1)N[C@@H]1C(=O)N2C(C(=O)O)=C(Sc3ccc(CSc4ncn[nH]4)cc3)CS[C@H]12 [Cmpd 65, (7R)-7-[(Phenylacetyl)amino]-3-(4-(1,2,4-triazol-5-ylthiomethyl)phenylthio)-3-cephem-4-carboxylic acid]",MIC,[1],> 32 µg/mL
same,MIC,[2],1 µg/mL
same,MIC,[3],< 0.25 µg/mL
same,MIC,[4],2 µg/mL
same,MIC,[5],32 µg/mL
same,MIC,[6],> 32 µg/mL
same,MIC,[7],32 µg/mL
same,MIC,[8],< 0.25 µg/mL
same,MIC,[9],< 0.25 µg/mL
same,MIC,[10],< 0.25 µg/mL
"N#CCC(=O)N[C@@H]1C(=O)N2C(C(=O)O)=C(Sc3ccc(CSC(=N)N)cc3I)CS[C@H]12 [Cmpd 66, (7R)-7-[(Cyanoacetyl)amino]-3-(4-isothiouroniummethyl-2-iodophenylthio)-3-cephem-4-carboxylate, inner salt]",MIC,[1],> 32 µg/mL
same,MIC,[2],4 µg/mL
same,MIC,[3],< 0.25 µg/mL
same,MIC,[4],1 µg/mL
same,MIC,[5],8 µg/mL
same,MIC,[6],> 32 µg/mL
same,MIC,[7],8 µg/mL
same,MIC,[9],< 0.25 µg/mL
same,MIC,[10],< 0.25 µg/mL
"O=C(Cc1ccccc1)N[C@@H]1C(=O)N2C(C(=O)O)=C(Sc3ccccc3CSc3ncn[nH]3)CS[C@H]12 [Cmpd 67, (7R)-7-[(Phenylacetyl)amino]-3-(2-(1,2,4-triazol-5-ylthiomethyl)phenylthio)-3-cephem-4-carboxylic acid]",MIC,[1],> 32 µg/mL
same,MIC,[2],2 µg/mL
same,MIC,[3],< 0.25 µg/mL
same,MIC,[4],2 µg/mL
same,MIC,[5],16 µg/mL
same,MIC,[6],> 32 µg/mL
same,MIC,[7],16 µg/mL
same,MIC,[8],< 0.25 µg/mL
same,MIC,[9],< 0.25 µg/mL
same,MIC,[10],< 0.25 µg/mL
"C[n+]1cccc(SC2=C(C(=O)[O-])N3C(=O)[C@@H](NC(=O)Cc4ccccc4)[C@H]3SC2)c1-c1ccccc1 [Cmpd 82, (7R)-7-[(Phenylacetyl)amino]-3-(2-phenyl-N-methylpyridin-3-iumthio)-3-cephem-4-carboxylate]",MIC,[1],> 32 µg/mL
same,MIC,[2],1 µg/mL
same,MIC,[3],< 0.25 µg/mL
same,MIC,[4],4 µg/mL
same,MIC,[5],32 µg/mL
same,MIC,[6],> 32 µg/mL
same,MIC,[7],16 µg/mL
same,MIC,[9],< 0.25 µg/mL
same,MIC,[10],< 0.25 µg/mL
"O=C(Cc1ccccc1)N[C@@H]1C(=O)N2C(C(=O)[O-])=C(Sc3ccc[n+](Cc4ccccc4)c3-c3ccccc3)CS[C@H]12 [Cmpd 83, (7R)-7-[(Phenylacetyl)amino]-3-(2-phenyl-N-benzylpyridin-3-iumthio)-3-cephem-4-carboxylate]",MIC,[1],> 32 µg/mL
same,MIC,[2],1 µg/mL
same,MIC,[3],< 0.25 µg/mL
same,MIC,[4],2 µg/mL
same,MIC,[5],32 µg/mL
same,MIC,[6],> 32 µg/mL
same,MIC,[7],16 µg/mL
same,MIC,[9],< 0.25 µg/mL
same,MIC,[10],< 0.25 µg/mL
"O=C(Cc1ccc(Cl)cc1)N[C@@H]1C(=O)N2C(C(=O)O)=C(Sc3cccnc3-c3ccccc3)CS[C@H]12 [Cmpd 84, (7R)-7-[(4-Chlorophenylacetyl)amino]-3-(2-phenylpyridin-3-ylthio)-3-cephem-4-carboxylic acid]",MIC,[1],> 32 µg/mL
same,MIC,[2],1 µg/mL
same,MIC,[3],< 0.25 µg/mL
same,MIC,[4],1 µg/mL
same,MIC,[5],8 µg/mL
same,MIC,[6],> 32 µg/mL
same,MIC,[7],8 µg/mL
same,MIC,[9],< 0.25 µg/mL
same,MIC,[10],< 0.25 µg/mL
"O=C(Cc1ccccc1)N[C@@H]1C(=O)N2C(C(=O)O)=C(Sc3cnnn3-c3ccccc3)CS[C@H]12 [Cmpd 91, (7R)-7-[(Phenylacetyl)amino]-3-(1-N-phenyl-1,2,3-triazol-5-ylthio)-3-cephem-4-carboxylic acid]",MIC,[1],> 32 µg/mL
same,MIC,[2],1 µg/mL
same,MIC,[3],< 0.25 µg/mL
same,MIC,[4],2 µg/mL
same,MIC,[5],> 32 µg/mL
same,MIC,[6],> 32 µg/mL
same,MIC,[7],16 µg/mL
same,MIC,[9],< 0.25 µg/mL
same,MIC,[10],< 0.25 µg/mL
"O=C(Cc1ccccc1)N[C@@H]1C(=O)N2C(C(=O)O)=C(Sc3nnnn3-c3ccccc3)CS[C@H]12 [Cmpd 94, (7R)-7-[(Phenylacetyl)amino]-3-(1-N-phenyltetrazol-5-ylthio)-3-cephem-4-carboxylic acid]",MIC,[1],> 32 µg/mL
same,MIC,[2],1 µg/mL
same,MIC,[3],< 0.25 µg/mL
same,MIC,[4],2 µg/mL
same,MIC,[5],> 32 µg/mL
same,MIC,[6],> 32 µg/mL
same,MIC,[7],16 µg/mL
same,MIC,[9],< 0.25 µg/mL
same,MIC,[10],< 0.25 µg/mL
"O=C(Cc1ccccc1)N[C@@H]1C(=O)N2C(C(=O)O)=C(Sc3ccccc3-c3cnco3)CS[C@H]12 [Cmpd 95, (7R)-7-[(Phenylacetyl)amino]-3-(2-oxazol-5-ylphenylthio)-3-cephem-4-carboxylic acid]",MIC,[1],> 32 µg/mL
same,MIC,[2],4 µg/mL
same,MIC,[3],< 0.25 µg/mL
same,MIC,[4],4 µg/mL
same,MIC,[5],16 µg/mL
same,MIC,[6],> 32 µg/mL
same,MIC,[7],8 µg/mL
same,MIC,[9],< 0.25 µg/mL
same,MIC,[10],< 0.25 µg/mL
